Source: patent US10570117B2, “Phenylimidazole compound” (Otsuka Pharmaceutical Factory, Inc., priority 2015, dated 2020)
≈ marks a conversion by molar mass, not a printed value. Read-outs that look alike come from different tables or passages of the source.

Tests used:
[1] = test system: lipoprotein lipase (LPL) gene; experiment: LPL mRNA elevating action (RT-PCR quantification of LPL mRNA in C2Cl2 cells); type: cell-based, mouse; conditions: Mus musculus, 24 h, compound 10 μM, ratio relative to the amount of LPL mRNA in cells with DMSO only, read-out: Rate of increase in LPL mRNA
Summary of the method: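 Read-out is LPL mRNA relative to vehicle (DMSO = 1), measured by reverse transcription and 20-cycle real-time PCR. Cells were the mouse striated-muscle line C2Cl2, treated 24 h with 10 μM compound in DMEM containing 10% FBS.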

[2] = Solubility in gastric juice or intestinal juice model fluid (precipitation method using DMSO); type: physicochemical; conditions: room temperature
Summary of the method: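 Dissolved amount (μg/mL) quantified by UV of filtrate versus pre-made calibration curves. Precipitation approach: DMSO solutions spiked into pH 1.2 (JP 1st fluid) or pH 6.8 (JP 2nd fluid) medium, shaken at room temperature for 24 h before insolubles were filtered off.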

[3] = pH 1.2, simulated gastric fluid, kinetic from dmso stock, 1st fluid for Disintegration Test of Japanese Pharmacopoeia (pH: 1.2), read-out: Solubility (μg/mL) 1st fluid
[4] = pH 6.8, kinetic from dmso stock, 2nd fluid for Disintegration Test of Japanese Pharmacopoeia (pH: 6.8), read-out: Solubility (μg/mL) 2nd fluid

SMILES	melting point	fold induction at 10 µM [1]	solubility at 24 h [2, 3]	solubility at 24 h [2, 4]
COc1cc(-c2nc(-c3ccc(Cl)nc3)[nH]c2Cl)ccc1OCc1cccc(F)n1 [Example 220]	198 to 201 °C	2.69	< 0.3 µg/mL	< 7.9 µg/mL
COc1cc(OCc2ncccc2C(F)(F)F)ccc1-c1nc(-c2ccc(Cl)nc2)[nH]c1Cl [Example 221]	182 to 184 °C	3.47	66.5 µg/mL (≈ 134 µM)	< 8.8 µg/mL
COc1cc(OCc2ccc(C(F)(F)F)cn2)ccc1-c1nc(-c2ccc(Cl)nc2)[nH]c1Br [Example 225]	186 to 188 °C	2.8	5.5 µg/mL (≈ 10.2 µM)	0.9 µg/mL (≈ 1.67 µM)
COc1cc(OCc2cnccn2)ccc1-c1nc(-c2ccc(Cl)nc2)[nH]c1Cl [Example 230]	172 to 174 °C	1.58	7.2 µg/mL (≈ 16.8 µM)	< 0.3 µg/mL
COc1cc(OCc2ccc(C(F)(F)F)cn2)ccc1-c1nc(-c2ccc(F)nc2)[nH]c1Cl [Example 233]	190 to 193 °C	3.87	9.9 µg/mL (≈ 20.7 µM)	1.1 µg/mL (≈ 2.3 µM)
COc1cc(-c2nc(C3CCCCC3)[nH]c2Cl)ccc1OCc1ccc(C(F)(F)F)cn1 [Example 234]	171 to 175 °C	3.06	92.8 µg/mL (≈ 199 µM)	< 0.3 µg/mL
COc1cc(OC(C)c2cccc(C(F)(F)F)n2)ccc1-c1[nH]c(-c2ccc(F)nc2)nc1Cl (centres unmarked) [Example 237]	170 to 175 °C	2.82	7.1 µg/mL (≈ 14.4 µM)	< 1.8 µg/mL
COc1cc(OC(C)c2ncc(Br)cc2F)ccc1-c1[nH]c(-c2ccc(F)nc2)nc1Cl (centres unmarked) [Example 238]	173 to 175 °C	2.42	7.5 µg/mL (≈ 14.4 µM)	5.6 µg/mL (≈ 10.7 µM)
COc1cc(OC(C)c2ccc(C(F)(F)F)nc2)ccc1-c1[nH]c(-c2ccc(F)nc2)nc1Cl (centres unmarked) [Example 239]	148 to 150 °C	2.39	8.8 µg/mL (≈ 17.9 µM)	15.6 µg/mL (≈ 31.7 µM)
COc1cc(OCc2ncc(F)cc2F)ccc1-c1[nH]c(-c2ccc(Cl)nc2)nc1Cl [Example 247]	187 to 190 °C	2.25	8.4 µg/mL (≈ 18.1 µM)	5.3 µg/mL (≈ 11.4 µM)
COc1cc(OCc2ncccc2C(F)(F)F)ccc1-c1[nH]c(-c2ccc(Cl)nc2)nc1Br [Example 253]	176 to 186 °C	2.62	5.9 µg/mL (≈ 10.9 µM)	1 µg/mL (≈ 1.85 µM)
COc1cc(OCc2ncc(C(F)(F)F)cc2F)ccc1-c1[nH]c(-c2ccc(F)nc2)nc1Br [Example 255]	156 to 158 °C	3.14	17.5 µg/mL (≈ 32.3 µM)	< 0.4 µg/mL
COc1cc(OCc2cnccc2C(F)(F)F)ccc1-c1[nH]c(-c2ccc(F)nc2)nc1Br [Example 256]	132 to 162 °C	3.12	11.4 µg/mL (≈ 21.8 µM)	< 0.4 µg/mL
COc1cc(OCc2ncc(Cl)cc2Br)ccc1-c1[nH]c(-c2ccc(F)nc2)nc1Cl [Example 265]	195 to 199 °C	3.36	2.2 µg/mL (≈ 4.2 µM)	5.8 µg/mL (≈ 11.1 µM)
COc1cc(OCc2ncc(F)cc2F)ccc1-c1[nH]c(-c2ccc(F)nc2)nc1Br [Example 266]	161 to 164 °C	2.38	64.3 µg/mL (≈ 131 µM)	4.6 µg/mL (≈ 9.36 µM)
COc1cc(OCc2ncc(Cl)cc2F)ccc1-c1[nH]c(-c2ccc(F)nc2)nc1Br [Example 267]	175 to 178 °C	2.66	17.7 µg/mL (≈ 34.9 µM)	0.4 µg/mL (≈ 0.788 µM)
COc1cc(OCc2ncc(Br)cc2F)ccc1-c1[nH]c(-c2ccc(F)nc2)nc1Br [Example 268]	179 to 181 °C	2.53	13.8 µg/mL (≈ 25 µM)	6.6 µg/mL (≈ 12 µM)
COc1cc(OCc2cncc(C(F)(F)F)c2)ccc1-c1[nH]c(-c2ccc(F)nc2)nc1Br [Example 270]	176 to 179 °C	3.81	9.1 µg/mL (≈ 17.4 µM)	< 0.4 µg/mL
COc1cc(OCc2ncc(Cl)cc2C(F)(F)F)ccc1-c1[nH]c(-c2ccc(F)nc2)nc1Br [Example 274]	167 to 168 °C	3.41	6.7 µg/mL (≈ 12 µM)	0.4 µg/mL (≈ 0.717 µM)
COc1cc(OCc2ccncc2C(F)(F)F)ccc1-c1[nH]c(-c2ccc(F)nc2)nc1Br [Example 276]	199 to 203 °C (dec.)	2.36	66.5 µg/mL (≈ 127 µM)	6.7 µg/mL (≈ 12.8 µM)
